{
  "source": "paper PMC11850817",
  "about": "(Scientific Reports, 2025)",
  "key": {"IGF1R": {"target": "IGF1R (Homo sapiens, UniProt P08069)", "experiment": "Radiometric kinase assay", "type": "biochemical", "details": "read-out: Kinase inhibition (%) IGF1R"}, "WEE1": {"target": "WEE1 (Homo sapiens, UniProt P30291)", "experiment": "Radiometric kinase assay", "type": "biochemical", "details": "read-out: Kinase inhibition (%) WEE1"}, "AKT1": {"target": "AKT1 (Homo sapiens, UniProt P31749)", "experiment": "Radiometric kinase assay", "type": "biochemical", "details": "read-out: Kinase inhibition (%) AKT1"}, "FLT4 (VEGFR3)": {"target": "FLT4 (VEGFR3) (Homo sapiens, UniProt P35916)", "experiment": "Radiometric kinase assay", "type": "biochemical", "details": "read-out: Kinase inhibition (%) FLT4 (VEGFR3)"}, "FGFR1": {"target": "FGFR1 (Homo sapiens, UniProt P11362)", "experiment": "Radiometric kinase assay", "type": "biochemical", "details": "read-out: Kinase inhibition (%) FGFR1"}, "MET": {"target": "MET (Homo sapiens, UniProt P08581)", "experiment": "Radiometric kinase assay", "type": "biochemical", "details": "read-out: Kinase inhibition (%) MET"}, "PDGFRB (PDGFRβ)": {"target": "PDGFRB (PDGFRβ) (Homo sapiens, UniProt P09619)", "experiment": "Radiometric kinase assay", "type": "biochemical", "details": "read-out: Kinase inhibition (%) PDGFRB (PDGFRβ)"}, "KDR (VEGFR2)": {"target": "KDR (VEGFR2) (Homo sapiens, UniProt P35968)", "sequence (P35968 20-1356)": "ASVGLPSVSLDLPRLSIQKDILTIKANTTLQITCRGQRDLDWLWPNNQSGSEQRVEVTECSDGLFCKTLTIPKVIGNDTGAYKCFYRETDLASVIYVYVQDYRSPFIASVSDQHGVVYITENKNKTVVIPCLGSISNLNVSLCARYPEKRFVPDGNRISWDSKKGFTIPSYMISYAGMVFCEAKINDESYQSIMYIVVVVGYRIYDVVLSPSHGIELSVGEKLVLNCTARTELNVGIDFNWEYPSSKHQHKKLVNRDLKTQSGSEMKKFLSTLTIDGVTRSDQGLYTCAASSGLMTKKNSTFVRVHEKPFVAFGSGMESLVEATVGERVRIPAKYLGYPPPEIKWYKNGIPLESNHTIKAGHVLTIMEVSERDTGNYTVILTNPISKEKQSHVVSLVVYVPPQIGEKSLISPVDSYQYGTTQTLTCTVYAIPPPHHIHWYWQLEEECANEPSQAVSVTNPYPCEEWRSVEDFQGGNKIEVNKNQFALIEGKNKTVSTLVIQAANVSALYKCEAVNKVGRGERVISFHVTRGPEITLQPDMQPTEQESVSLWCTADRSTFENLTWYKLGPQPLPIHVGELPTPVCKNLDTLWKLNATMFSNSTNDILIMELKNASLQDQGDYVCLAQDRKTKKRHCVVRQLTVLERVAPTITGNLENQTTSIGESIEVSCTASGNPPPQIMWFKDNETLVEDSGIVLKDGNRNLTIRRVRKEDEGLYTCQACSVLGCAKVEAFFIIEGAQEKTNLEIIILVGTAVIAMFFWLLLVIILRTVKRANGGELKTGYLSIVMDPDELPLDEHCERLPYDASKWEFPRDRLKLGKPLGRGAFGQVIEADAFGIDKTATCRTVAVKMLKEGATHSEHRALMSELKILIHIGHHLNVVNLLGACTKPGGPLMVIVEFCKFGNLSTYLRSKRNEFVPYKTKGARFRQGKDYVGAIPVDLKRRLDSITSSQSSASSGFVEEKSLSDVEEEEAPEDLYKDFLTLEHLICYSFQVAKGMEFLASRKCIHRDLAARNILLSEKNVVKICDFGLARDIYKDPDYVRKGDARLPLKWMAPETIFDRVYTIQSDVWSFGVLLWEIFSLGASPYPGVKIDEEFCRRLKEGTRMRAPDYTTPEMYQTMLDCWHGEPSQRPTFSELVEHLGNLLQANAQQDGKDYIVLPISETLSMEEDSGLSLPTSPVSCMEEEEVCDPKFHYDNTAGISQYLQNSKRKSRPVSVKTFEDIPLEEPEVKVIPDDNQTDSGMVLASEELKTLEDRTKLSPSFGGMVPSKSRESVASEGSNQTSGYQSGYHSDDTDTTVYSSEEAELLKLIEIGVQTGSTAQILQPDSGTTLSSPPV", "experiment": "Radiometric kinase assay", "type": "biochemical", "details": "read-out: Kinase inhibition (%) KDR (VEGFR2)"}, "CDK6/cyclinD3": {"target": "CDK6/cyclinD3 (Homo sapiens, UniProt Q00534)", "experiment": "Radiometric kinase assay", "type": "biochemical", "details": "read-out: Kinase inhibition (%) CDK6/cyclinD3"}, "NTRK1 (TrkA)": {"target": "NTRK1 (TrkA) (Homo sapiens, UniProt P04629)", "experiment": "Radiometric kinase assay", "type": "biochemical", "details": "read-out: Kinase inhibition (%) NTRK1 (TrkA)"}, "ABL1": {"target": "ABL1 (Homo sapiens, UniProt P00519)", "sequence (P00519 whole entry)": "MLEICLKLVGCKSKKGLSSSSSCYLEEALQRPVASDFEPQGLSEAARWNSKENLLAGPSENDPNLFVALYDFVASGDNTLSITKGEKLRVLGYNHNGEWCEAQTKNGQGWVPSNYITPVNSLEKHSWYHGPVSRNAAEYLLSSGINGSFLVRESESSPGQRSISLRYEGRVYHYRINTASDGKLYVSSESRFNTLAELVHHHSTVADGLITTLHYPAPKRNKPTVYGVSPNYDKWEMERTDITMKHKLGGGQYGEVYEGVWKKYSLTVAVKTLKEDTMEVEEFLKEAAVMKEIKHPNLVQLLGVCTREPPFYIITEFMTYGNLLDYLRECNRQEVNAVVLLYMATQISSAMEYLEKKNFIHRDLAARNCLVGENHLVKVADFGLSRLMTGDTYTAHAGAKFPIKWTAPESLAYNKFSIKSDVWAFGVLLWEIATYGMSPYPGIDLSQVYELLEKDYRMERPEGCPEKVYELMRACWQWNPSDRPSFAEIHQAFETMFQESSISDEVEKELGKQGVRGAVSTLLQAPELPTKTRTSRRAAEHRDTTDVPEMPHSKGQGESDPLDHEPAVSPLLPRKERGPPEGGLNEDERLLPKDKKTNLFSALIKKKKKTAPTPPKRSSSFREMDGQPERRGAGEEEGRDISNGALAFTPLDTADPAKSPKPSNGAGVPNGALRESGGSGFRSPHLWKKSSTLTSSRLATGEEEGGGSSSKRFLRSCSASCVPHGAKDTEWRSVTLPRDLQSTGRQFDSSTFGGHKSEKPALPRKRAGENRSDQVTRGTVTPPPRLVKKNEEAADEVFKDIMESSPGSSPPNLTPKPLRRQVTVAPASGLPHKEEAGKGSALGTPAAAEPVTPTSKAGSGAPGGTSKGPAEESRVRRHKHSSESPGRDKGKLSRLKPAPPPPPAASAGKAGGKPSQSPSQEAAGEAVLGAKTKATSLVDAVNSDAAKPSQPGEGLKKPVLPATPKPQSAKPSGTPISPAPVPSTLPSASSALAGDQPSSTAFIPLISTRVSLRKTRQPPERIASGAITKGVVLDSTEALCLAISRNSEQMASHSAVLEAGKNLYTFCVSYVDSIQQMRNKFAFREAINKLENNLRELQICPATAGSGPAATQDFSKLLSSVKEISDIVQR", "experiment": "Radiometric kinase assay", "type": "biochemical", "details": "read-out: Kinase inhibition (%) ABL1"}, "KIT (c-Kit)": {"target": "KIT (c-Kit) (Homo sapiens, UniProt P10721)", "experiment": "Radiometric kinase assay", "type": "biochemical", "details": "read-out: Kinase inhibition (%) KIT (c-Kit)"}, "ALK": {"target": "ALK (Homo sapiens, UniProt Q9UM73)", "experiment": "Radiometric kinase assay", "type": "biochemical", "details": "read-out: Kinase inhibition (%) ALK"}, "NTRK2 (TrkB)": {"target": "NTRK2 (TrkB) (Homo sapiens, UniProt Q16620)", "experiment": "Radiometric kinase assay", "type": "biochemical", "details": "read-out: Kinase inhibition (%) NTRK2 (TrkB)"}, "BRAF": {"target": "BRAF (Homo sapiens, UniProt P15056)", "sequence (P15056 whole entry)": "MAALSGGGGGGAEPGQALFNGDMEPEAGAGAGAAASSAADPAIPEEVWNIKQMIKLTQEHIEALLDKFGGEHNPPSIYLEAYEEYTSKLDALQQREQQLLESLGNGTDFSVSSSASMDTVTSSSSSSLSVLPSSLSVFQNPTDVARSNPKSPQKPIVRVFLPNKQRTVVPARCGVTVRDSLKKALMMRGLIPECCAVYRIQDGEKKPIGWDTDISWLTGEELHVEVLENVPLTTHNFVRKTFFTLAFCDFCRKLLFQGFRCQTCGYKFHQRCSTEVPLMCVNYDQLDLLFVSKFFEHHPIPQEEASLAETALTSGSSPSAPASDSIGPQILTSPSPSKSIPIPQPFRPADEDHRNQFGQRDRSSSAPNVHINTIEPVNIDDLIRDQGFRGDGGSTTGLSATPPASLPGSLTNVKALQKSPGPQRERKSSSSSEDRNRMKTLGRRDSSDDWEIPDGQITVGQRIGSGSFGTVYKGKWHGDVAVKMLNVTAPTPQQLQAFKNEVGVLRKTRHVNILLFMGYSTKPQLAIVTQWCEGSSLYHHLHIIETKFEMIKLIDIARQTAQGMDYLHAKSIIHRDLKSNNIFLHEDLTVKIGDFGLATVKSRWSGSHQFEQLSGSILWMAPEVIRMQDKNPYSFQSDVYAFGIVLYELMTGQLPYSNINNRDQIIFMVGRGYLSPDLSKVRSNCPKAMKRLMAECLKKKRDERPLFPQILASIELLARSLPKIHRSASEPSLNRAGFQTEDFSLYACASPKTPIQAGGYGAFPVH", "experiment": "Radiometric kinase assay", "type": "biochemical", "details": "read-out: Kinase inhibition (%) BRAF"}, "ROS1": {"target": "ROS1 (Homo sapiens, UniProt P08922)", "experiment": "Radiometric kinase assay", "type": "biochemical", "details": "read-out: Kinase inhibition (%) ROS1"}, "NIH3T3": {"test_system": "NIH3T3", "experiment": "MTT assay, NIH3T3 non-cancer cell line", "type": "cell-based", "details": "Mus musculus, NIH3T3, 72 h, read-out: IC50 NIH3T3"}, "NTRK3 (TrkC)": {"target": "NTRK3 (TrkC) (Homo sapiens, UniProt Q16288)", "experiment": "Radiometric kinase assay", "type": "biochemical", "details": "read-out: Kinase inhibition (%) NTRK3 (TrkC)"}, "MAP2K1": {"target": "MAP2K1 (Homo sapiens, UniProt Q02750)", "experiment": "Radiometric kinase assay", "type": "biochemical", "details": "read-out: Kinase inhibition (%) MAP2K1"}, "MCF-7": {"test_system": "MCF-7", "experiment": "MTT antiproliferative assay, MCF-7", "type": "cell-based, human", "details": "Homo sapiens, MCF7, 72 h, read-out: IC50 MCF-7"}, "AsPC-1": {"test_system": "AsPC-1", "experiment": "MTT antiproliferative assay, AsPC-1", "type": "cell-based, human", "details": "Homo sapiens, ASPC1, 72 h, read-out: IC50 AsPC-1"}, "EGFR": {"target": "EGFR (Homo sapiens, UniProt P00533)", "sequence (P00533 25-1210)": "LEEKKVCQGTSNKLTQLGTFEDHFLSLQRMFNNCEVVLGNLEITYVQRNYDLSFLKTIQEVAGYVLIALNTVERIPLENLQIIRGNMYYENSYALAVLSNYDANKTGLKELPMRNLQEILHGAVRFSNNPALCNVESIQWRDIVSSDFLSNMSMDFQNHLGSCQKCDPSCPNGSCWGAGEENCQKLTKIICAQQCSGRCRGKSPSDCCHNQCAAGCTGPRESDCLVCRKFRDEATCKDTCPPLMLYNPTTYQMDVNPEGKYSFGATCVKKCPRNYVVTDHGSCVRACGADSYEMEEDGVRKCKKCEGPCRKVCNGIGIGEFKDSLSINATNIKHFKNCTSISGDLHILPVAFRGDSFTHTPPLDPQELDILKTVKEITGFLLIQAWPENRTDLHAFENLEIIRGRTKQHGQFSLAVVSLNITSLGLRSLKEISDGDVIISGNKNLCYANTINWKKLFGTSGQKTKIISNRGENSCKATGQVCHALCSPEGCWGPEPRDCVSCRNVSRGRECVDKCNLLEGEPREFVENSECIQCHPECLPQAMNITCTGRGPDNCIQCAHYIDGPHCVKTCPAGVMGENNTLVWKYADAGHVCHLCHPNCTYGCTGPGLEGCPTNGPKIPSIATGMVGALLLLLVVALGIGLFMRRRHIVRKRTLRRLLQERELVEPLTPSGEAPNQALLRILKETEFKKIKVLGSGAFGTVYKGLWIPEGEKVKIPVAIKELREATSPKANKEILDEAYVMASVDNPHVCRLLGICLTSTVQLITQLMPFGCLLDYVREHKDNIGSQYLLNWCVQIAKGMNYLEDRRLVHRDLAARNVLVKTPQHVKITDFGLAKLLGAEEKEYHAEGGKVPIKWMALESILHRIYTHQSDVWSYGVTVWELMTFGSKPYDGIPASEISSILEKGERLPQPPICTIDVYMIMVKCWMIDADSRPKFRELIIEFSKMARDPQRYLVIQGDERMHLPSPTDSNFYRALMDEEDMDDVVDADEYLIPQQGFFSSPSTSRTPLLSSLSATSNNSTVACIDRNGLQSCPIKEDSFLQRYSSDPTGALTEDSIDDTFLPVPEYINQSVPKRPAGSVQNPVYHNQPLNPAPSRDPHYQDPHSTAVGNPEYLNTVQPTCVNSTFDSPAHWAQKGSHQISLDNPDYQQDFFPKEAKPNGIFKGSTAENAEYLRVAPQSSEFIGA", "experiment": "Radiometric kinase assay", "type": "biochemical", "details": "read-out: Kinase inhibition (%) EGFR"}, "AKT2": {"target": "AKT2 (Homo sapiens, UniProt P31751)", "sequence (P31751 whole entry)": "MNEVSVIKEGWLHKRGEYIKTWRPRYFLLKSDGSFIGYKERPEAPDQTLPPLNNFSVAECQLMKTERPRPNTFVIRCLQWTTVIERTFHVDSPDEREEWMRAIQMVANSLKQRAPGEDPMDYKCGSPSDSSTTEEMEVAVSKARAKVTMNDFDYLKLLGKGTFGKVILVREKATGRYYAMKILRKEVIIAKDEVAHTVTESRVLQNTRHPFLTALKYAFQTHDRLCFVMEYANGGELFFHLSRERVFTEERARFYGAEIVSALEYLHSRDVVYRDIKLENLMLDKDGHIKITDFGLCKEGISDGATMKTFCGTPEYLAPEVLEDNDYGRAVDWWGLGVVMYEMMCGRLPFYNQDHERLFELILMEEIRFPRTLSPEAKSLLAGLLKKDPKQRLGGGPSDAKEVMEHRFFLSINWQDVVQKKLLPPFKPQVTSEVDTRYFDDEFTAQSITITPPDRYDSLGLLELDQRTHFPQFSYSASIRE", "experiment": "Radiometric kinase assay", "type": "biochemical", "details": "read-out: Kinase inhibition (%) AKT2"}, "AURKA": {"target": "AURKA (Homo sapiens, UniProt O14965)", "experiment": "Radiometric kinase assay", "type": "biochemical", "details": "read-out: Kinase inhibition (%) AURKA"}, "AXL": {"target": "T1, AXL (Homo sapiens, UniProt P30530)", "T1 sequence (P30530 26-894)": "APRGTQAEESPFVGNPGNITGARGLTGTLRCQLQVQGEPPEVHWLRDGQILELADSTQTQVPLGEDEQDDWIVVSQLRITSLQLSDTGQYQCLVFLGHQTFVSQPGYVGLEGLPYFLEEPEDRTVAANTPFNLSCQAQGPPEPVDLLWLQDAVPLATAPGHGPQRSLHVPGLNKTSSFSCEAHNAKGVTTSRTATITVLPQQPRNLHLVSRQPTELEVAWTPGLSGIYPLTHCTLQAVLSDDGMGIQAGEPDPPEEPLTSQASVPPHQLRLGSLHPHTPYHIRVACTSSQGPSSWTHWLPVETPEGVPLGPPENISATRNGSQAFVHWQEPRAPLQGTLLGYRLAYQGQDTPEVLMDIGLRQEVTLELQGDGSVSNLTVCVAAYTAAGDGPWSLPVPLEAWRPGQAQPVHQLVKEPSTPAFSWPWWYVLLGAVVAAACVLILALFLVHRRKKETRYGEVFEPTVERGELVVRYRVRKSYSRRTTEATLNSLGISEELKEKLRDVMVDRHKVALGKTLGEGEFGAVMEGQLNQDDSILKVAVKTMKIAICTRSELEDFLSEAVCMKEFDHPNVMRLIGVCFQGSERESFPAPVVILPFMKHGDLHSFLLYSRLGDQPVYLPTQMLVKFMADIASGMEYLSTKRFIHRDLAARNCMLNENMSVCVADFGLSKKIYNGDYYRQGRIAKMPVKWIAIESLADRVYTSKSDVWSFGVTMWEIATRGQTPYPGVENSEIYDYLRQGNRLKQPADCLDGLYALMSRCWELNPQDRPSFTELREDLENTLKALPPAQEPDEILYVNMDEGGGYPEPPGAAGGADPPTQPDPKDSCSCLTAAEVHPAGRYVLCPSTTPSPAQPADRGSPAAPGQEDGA", "experiment": "Radiometric kinase assay", "type": "biochemical", "details": "read-out: Kinase inhibition (%) AXL"}, "[1]": {"test_system": "EBC-1, AsPC-1, Mia-Paca-2, HT-29, MCF-7 cancer cells", "experiment": "MTT antiproliferative assay, cancer cell lines summarised", "type": "cell-based, human", "details": "Homo sapiens, read-out: IC50 range against tested cell lines"}},
  "data": [
    {"compound": "O=C1C=C(Nc2ccc(OCc3cn(Cc4ccc(Cl)c(Cl)c4)nn3)cc2)C(=O)c2ccccc21", "note": "[Compound 4e, 2-((4-((1-(3,4-Dichlorobenzyl)−1H-1,2,3-triazol-4-yl)methoxy)phenyl)amino) naphthalene-1,4-dione]", "values": [
      {"measurement": "inhibition at 10 µM", "setting": "IGF1R", "result": -11, "unit": "%"},
      {"measurement": "inhibition at 10 µM", "setting": "WEE1", "result": -4, "unit": "%"},
      {"measurement": "inhibition at 10 µM", "setting": "AKT1", "result": 15, "unit": "%"},
      {"measurement": "inhibition at 10 µM", "setting": "FLT4 (VEGFR3)", "result": 30, "unit": "%"},
      {"measurement": "inhibition at 10 µM", "setting": "FGFR1", "result": -5, "unit": "%"},
      {"measurement": "inhibition at 10 µM", "setting": "MET", "result": -14, "unit": "%"},
      {"measurement": "inhibition at 10 µM", "setting": "PDGFRB (PDGFRβ)", "result": 14, "unit": "%"},
      {"measurement": "inhibition at 10 µM", "setting": "KDR (VEGFR2)", "result": -9, "unit": "%"},
      {"measurement": "inhibition at 10 µM", "setting": "CDK6/cyclinD3", "result": 3, "unit": "%"},
      {"measurement": "inhibition at 10 µM", "setting": "NTRK1 (TrkA)", "result": 2, "unit": "%"},
      {"measurement": "inhibition at 10 µM", "setting": "ABL1", "result": 13, "unit": "%"},
      {"measurement": "inhibition at 10 µM", "setting": "KIT (c-Kit)", "result": -8, "unit": "%"},
      {"measurement": "inhibition at 10 µM", "setting": "ALK", "result": 15, "unit": "%"},
      {"measurement": "inhibition at 10 µM", "setting": "NTRK2 (TrkB)", "result": 6, "unit": "%"},
      {"measurement": "inhibition at 10 µM", "setting": "BRAF", "result": -7, "unit": "%"},
      {"measurement": "inhibition at 10 µM", "setting": "ROS1", "result": -2, "unit": "%"},
      {"measurement": "IC50", "setting": "NIH3T3", "result": "6.5 ± 1.2", "unit": "µM"},
      {"measurement": "inhibition at 10 µM", "setting": "NTRK3 (TrkC)", "result": 12, "unit": "%"},
      {"measurement": "inhibition at 10 µM", "setting": "MAP2K1", "result": 4, "unit": "%"},
      {"measurement": "IC50", "setting": "MCF-7", "result": "7.1 ± 4.3", "unit": "µM"},
      {"measurement": "IC50", "setting": "AsPC-1", "result": "1100 ± 200", "unit": "nM"},
      {"measurement": "inhibition at 10 µM", "setting": "EGFR", "result": -3, "unit": "%"},
      {"measurement": "inhibition at 10 µM", "setting": "AKT2", "result": -7, "unit": "%"},
      {"measurement": "inhibition at 10 µM", "setting": "AURKA", "result": 5, "unit": "%"},
      {"measurement": "inhibition at 10 µM", "setting": "AXL", "result": 5, "unit": "%"},
      {"measurement": "IC50", "setting": "[1]", "result": "0.3 to 7.1", "unit": "µM"}
    ]}
  ]
}
